Results: US3972872A, “6-[α-(ω-Guanidinoalkanoylamido)acylamido]penicillanic acids” (Pfizer Inc., priority 1975, dated 1976)
Converted amounts (≈) assume the structure as drawn. Counter-ions that a name gives are not always drawn. Like-named read-outs stand apart in the source and are kept apart here.

How the values were obtained:
[1] = tested on: Pseudo. aeruginosa 104; experiment: In vitro MIC, Pseudo. aeruginosa 104; assay type: cell-based, Pseudomonas aeruginosa; conditions: unit assumed
Excerpt: (§1) The in vitro spectra of a number of 6-[α-(ω-guanidinoalkanoylamido)acylamido]penicillanic acids of this invention against certain gram-negative bacteria are presented in Table I below. […] Th compounds of Table I have the formula

[2] = tested on: Proteus mirabilis C015; experiment: In vitro MIC, Proteus mirabilis C015; assay type: cell-based; conditions: unit assumed
Excerpt: as §1

[3] = tested on: Pseudo. aeruginosa 490; experiment: In vitro MIC, Pseudo. aeruginosa 490; assay type: cell-based, Pseudomonas aeruginosa; conditions: unit assumed
Excerpt: as §1

[4] = tested on: E. coli 266; experiment: In vitro MIC, E. coli 266, two-fold serial dilution; assay type: cell-based, Escherichia coli; conditions: unit assumed
Excerpt: as §1

[5] = tested on: Pseudo. aeruginosa 173; experiment: In vitro MIC, Pseudo. aeruginosa 173; assay type: cell-based, Pseudomonas aeruginosa; conditions: unit assumed
Excerpt: as §1

[6] = tested on: Escherichia coli 266; experiment: In vivo protection of mice versus Escherichia coli 266; conditions: Escherichia coli, 266, sc, 96 h, read-out: % Protection
Excerpt: (§2) Additionally, the compounds of this invention are active versus gram-positive and gram-negative bacteria in vivo via the parenteral route of administration in animals, including man. Their in vivo activity in animals, including man, by the oral route of administration is more limited as regards susceptible organisms. Nevertheless, oral in vivo activity against Escherichia coli and Staphylococcus aureus is a common property of many compounds of this invention. Table II below presents the comparative in vivo spectra of several compounds within the scope of this invention against D-α-aminobenzylpenicillin (Ampicillin).
(§3) The acute systemic infections in mice were produced by the intraperitoneal inoculation of standardized cultures suspended in 5% hog gastric mucin. Treatment with the drugs was initiated 0.5 hours after inoculation of the infecting organism. A second dose was administered 4 hours later. The PD50 values were calculated after a hold period of 4 days.

[7] = tested on: Serratia marcescens A001; experiment: In vitro MIC, Serratia marcescens A001; assay type: cell-based; conditions: unit assumed
Excerpt: as §1

[8] = tested on: Proteus vulgaris A059; experiment: In vitro MIC, Proteus vulgaris A059; assay type: cell-based; conditions: unit assumed
Excerpt: as §1

[9] = tested on: Proteus rettgeri B006; experiment: In vitro MIC, Proteus rettgeri B006; assay type: cell-based; conditions: unit assumed
Excerpt: (§4) The in vitro activity of the herein-described compounds renders them useful for topical application in the form of ointments, creams and the like, or for sterilization purposes, e.g., sick room utensils.
as §1

[10] = tested on: Proteus mirabilis C020; experiment: In vitro MIC, Proteus mirabilis C020; assay type: cell-based; conditions: unit assumed
Excerpt: as §4, §1

[11] = tested on: P. aeruginosa; experiment: PD50 versus acute systemic P. aeruginosa infection in mice; assay type: in vivo; conditions: mice; for ED50: Pseudomonas aeruginosa, 96 h, P. aeruginosa, read-out: PD50
Excerpt: as §2, §3

[12] = tested on: E. coli; experiment: PD50 versus acute systemic E. coli infection in mice; assay type: in vivo; conditions: Escherichia coli, 96 h, E. coli, mice
Excerpt: as §2, §3

[13] = tested on: S. aureus; experiment: PD50 versus acute systemic S. aureus infection in mice; assay type: in vivo; conditions: Staphylococcus aureus, 96 h, S. aureus, mice
Excerpt: as §2, §3

[14] = 50 mg./kg., mice, subcutaneous route

## CNC(=N)NCC(=O)N[C@@H](C(=O)N[C@@H]1C(=O)N2[C@@H]1SC(C)(C)[C@@H]2C(=O)O)c1ccccc1 [CH2 --NH--C(NH)NHCH3, R=H]
[1]
  MIC: 1.56 µg/mL (≈ 3.37 µM)
[2]
  MIC: 1.56 µg/mL (≈ 3.37 µM)
[3]
  MIC: 0.78 µg/mL (≈ 1.69 µM)
[4]
  MIC: 1.56 µg/mL (≈ 3.37 µM)
[5]
  MIC: 3.12 µg/mL (≈ 6.75 µM)
[6]
  responders at 50 mg/kg: 100%
[7]
  MIC: 3.12 µg/mL (≈ 6.75 µM)
[8]
  MIC: 3.12 µg/mL (≈ 6.75 µM)

## CN(CC(=O)N[C@@H](C(=O)N[C@@H]1C(=O)N2[C@@H]1SC(C)(C)[C@@H]2C(=O)O)c1ccccc1)C(=N)N [CH2 N(CH3)--C(NH)NH2, R=H, 6-{D-2-Phenyl-2-[(1-Methylguanidino)Acetamido]Acetamido}-Penicillanic Acid]
[1]
  MIC: 50 µg/mL (≈ 108 µM)
[2]
  MIC: 6.25 µg/mL (≈ 13.5 µM)
[3]
  MIC: 3.12 µg/mL (≈ 6.75 µM)
[9]
  MIC: 100 µg/mL (≈ 216 µM)
[4]
  MIC: 6.25 µg/mL (≈ 13.5 µM)
[5]
  MIC: 12.5 µg/mL (≈ 27 µM)
[6]
  responders at 50 mg/kg: 60%
[7]
  MIC: 3.12 µg/mL (≈ 6.75 µM)
[8]
  MIC: 6.25 µg/mL (≈ 13.5 µM)
[10]
  MIC: 6.25 µg/mL (≈ 13.5 µM)

## CC1(C)S[C@@H]2[C@H](NC(=O)[C@H](NC(=O)CN3CCNC3=N)c3ccccc3)C(=O)N2[C@H]1C(=O)O [CH2 --N--C(NH)--NHCH2 CH2, R=H]
[1]
  MIC: 12.5 µg/mL (≈ 26.3 µM)
[2]
  MIC: 3.12 µg/mL (≈ 6.57 µM)
[3]
  MIC: 3.12 µg/mL (≈ 6.57 µM)
[4]
  MIC: 6.25 µg/mL (≈ 13.2 µM)
[5]
  MIC: 12.5 µg/mL (≈ 26.3 µM)
[6]
  responders at 50 mg/kg: 100%
[7]
  MIC: 12.5 µg/mL (≈ 26.3 µM)
[8]
  MIC: 6.25 µg/mL (≈ 13.2 µM)

## CC(C)(C)C(=O)OCOC(=O)[C@@H]1N2C(=O)[C@@H](NC(=O)[C@H](NC(=O)CNC(=N)N)c3ccccc3)[C@H]2SC1(C)C [CH2 NH--C(NH)NH2, R=POM, 6-[D-2-Phenyl-2-(Guanidinoacetamido)Acetamido]Penicillanic Acid, Pivaloyloxymethyl Ester, Hydrochloride]
[2]
  MIC: 50 µg/mL
[3]
  MIC: 0.78 µg/mL
[4]
  MIC: 25 µg/mL
[6]; [14]
  responders at 50 mg/kg: 90%

## CC1(C)S[C@@H]2[C@H](NC(=O)[C@H](NC(=O)c3cccc(NC(=N)N)c3)c3ccccc3)C(=O)N2[C@H]1C(=O)O [NH--C(NH)NH2 [2nd of 4], R=H]
[1]
  MIC: 1.56 µg/mL (≈ 3.06 µM)
[2]
  MIC: 6.25 µg/mL (≈ 12.2 µM)
[3]
  MIC: 0.78 µg/mL (≈ 1.53 µM)
[9]
  MIC: 12.5 µg/mL (≈ 24.5 µM)
[4]
  MIC: 3.12 µg/mL (≈ 6.11 µM)
[5]
  MIC: 1.56 µg/mL (≈ 3.06 µM)
[6]; [14]
  responders at 50 mg/kg: 60%
[7]
  MIC: 12.5 µg/mL (≈ 24.5 µM)
[8]
  MIC: 3.12 µg/mL (≈ 6.11 µM)
[10]
  MIC: 25 µg/mL (≈ 49 µM)

## CN(CC(=O)N[C@@H](C(=O)N[C@@H]1C(=O)N2[C@@H]1SC(C)(C)[C@@H]2C(=O)OCOC(=O)C(C)(C)C)c1ccccc1)C(=N)N [CH2 N(CH3)--C(NH)NH2, R=POM, 6-{D-2-Phenyl-2-[(1-Methylguanidino)Acetamido]Acetamido}-Penicillanic Acid, Pivaloyloxymethyl Ester, Hydrochloride]
[2]
  MIC: 12.5 µg/mL
[3]
  MIC: 3.12 µg/mL
[4]
  MIC: 12.5 µg/mL
[6]
  responders at 50 mg/kg: 70%

## CC1(C)S[C@@H]2[C@H](NC(=O)[C@H](NC(=O)C3CCC(NC(=N)N)CC3)c3ccccc3)C(=O)N2[C@H]1C(=O)O (some centres unmarked) [NH--C(NH)NH2 [3rd of 4], R=H]
[1]
  MIC: 3.12 µg/mL (≈ 6.04 µM)
[2]
  MIC: 6.25 µg/mL (≈ 12.1 µM)
[3]
  MIC: 6.25 µg/mL (≈ 12.1 µM)
[9]
  MIC: 50 µg/mL (≈ 96.8 µM)
[4]
  MIC: 6.25 µg/mL (≈ 12.1 µM)
[5]
  MIC: 1.56 µg/mL (≈ 3.02 µM)
[6]; [14]
  responders at 50 mg/kg: 50%
[7]
  MIC: 12.5 µg/mL (≈ 24.2 µM)
[8]
  MIC: 50 µg/mL (≈ 96.8 µM)
[10]
  MIC: 25 µg/mL (≈ 48.4 µM)

## CC(C)(C)C(=O)OCOC(=O)[C@@H]1N2C(=O)[C@@H](NC(=O)[C@H](NC(=O)CCNC(=N)N)c3ccccc3)[C@H]2SC1(C)C [CH2 CH2 NH--C(NH)NH2, R=POM, Hydrochloride]
[2]
  MIC: 0.39 µg/mL
[3]
  MIC: 6.25 µg/mL
[4]
  MIC: 6.25 µg/mL
[6]; [14]
  responders at 50 mg/kg: 100%

## CC1(C)S[C@@H]2[C@H](NC(=O)[C@H](NC(=O)CCNC(=N)N)c3ccccc3)C(=O)N2[C@H]1C(=O)O [CH2 CH2 NH--C(NH)NH2, R=H, 6-[D-2-Phenyl-2-(Guanidinopropionamido)Acetamido]Penicillanic Acid]
[1]
  MIC: 6.25 µg/mL (≈ 13.5 µM)
[2]
  MIC: 0.78 µg/mL (≈ 1.69 µM)
[3]
  MIC: 3.12 µg/mL (≈ 6.75 µM)
[9]
  MIC: 50 µg/mL (≈ 108 µM)
[4]
  MIC: 3.12 µg/mL (≈ 6.75 µM)
[5]
  MIC: 3.12 µg/mL (≈ 6.75 µM)
[6]; [14]
  responders at 50 mg/kg: 70%
[7]
  MIC: 6.25 µg/mL (≈ 13.5 µM)
[8]
  MIC: 3.12 µg/mL (≈ 6.75 µM)
[10]
  MIC: 12.5 µg/mL (≈ 27 µM)

## CC1(C)S[C@@H]2[C@H](NC(=O)[C@H](N)c3ccccc3)C(=O)N2[C@H]1C(=O)O [D-α-aminobenzylpenicillin, reference compound]
[1]
  MIC: 200 µg/mL (≈ 572 µM)
[11]; oral
  ED50: > 200 mg/kg
[11]; sc, subcutaneous
  ED50: > 200 mg/kg
[11]; in vivo
  activity against Pseudomonas aeruginosa (in words): inactive
[2]
  MIC: 1.5 µg/mL (≈ 4.29 µM)
[3]
  MIC: 0.78 µg/mL (≈ 2.23 µM)
[4]
  MIC: 3.1 µg/mL (≈ 8.87 µM)
[5]
  MIC: 200 µg/mL (≈ 572 µM)
[6]; [14]
  responders at 50 mg/kg: 100%
[7]
  MIC: 200 µg/mL (≈ 572 µM)
[8]
  MIC: 6 µg/mL (≈ 17.2 µM)
[12]; oral
  ED50: 25 ± 13 mg/kg
[12]; sc, subcutaneous
  ED50: 27 ± 9 mg/kg
[13]; oral
  ED50: 2.5 ± 0.7 mg/kg
[13]; sc, subcutaneous
  ED50: 0.67 ± 0.4 mg/kg

## CC1(C)S[C@@H]2[C@H](NC(=O)[C@H](NC(=O)Cc3ccc(NC(=N)N)cc3)c3ccccc3)C(=O)N2[C@H]1C(=O)O [NH--C(NH)NH2 [4th of 4], R=H]
[1]
  MIC: 6.25 µg/mL (≈ 11.9 µM)
[2]
  MIC: 12.5 µg/mL (≈ 23.8 µM)
[3]
  MIC: 1.56 µg/mL (≈ 2.97 µM)
[4]
  MIC: 6.25 µg/mL (≈ 11.9 µM)
[5]
  MIC: 3.12 µg/mL (≈ 5.95 µM)
[6]; [14]
  responders at 50 mg/kg: 20%
[7]
  MIC: 25 µg/mL (≈ 47.7 µM)
[8]
  MIC: 12.5 µg/mL (≈ 23.8 µM)

## CC1(C)S[C@@H]2[C@H](NC(=O)[C@H](NC(=O)c3ccc(NC(=N)N)cc3)c3ccccc3)C(=O)N2[C@H]1C(=O)O [NH--C(NH)NH2 [1st of 4], R=H]
[1]
  MIC: 0.78 µg/mL (≈ 1.53 µM)
[2]
  MIC: 3.12 µg/mL (≈ 6.11 µM)
[3]
  MIC: 0.78 µg/mL (≈ 1.53 µM)
[9]
  MIC: 25 µg/mL (≈ 49 µM)
[4]
  MIC: 3.12 µg/mL (≈ 6.11 µM)
[5]
  MIC: 0.78 µg/mL (≈ 1.53 µM)
[6]; [14]
  responders at 50 mg/kg: 10%
[7]
  MIC: 3.12 µg/mL (≈ 6.11 µM)
[8]
  MIC: 6.25 µg/mL (≈ 12.2 µM)
[10]
  MIC: 12.5 µg/mL (≈ 24.5 µM)

## CC1(C)S[C@@H]2[C@H](NC(=O)[C@H](NC(=O)CNC3=NCCN3)c3ccccc3)C(=O)N2[C@H]1C(=O)O [CH2 NH--.angle..vertline., R=H, 6-[D-2-Phenyl-2-(2-Imidazolinylaminoacetamido)Acetamido]Penicillanic Acid]
[1]
  MIC: 6.25 µg/mL (≈ 13.2 µM)
[2]
  MIC: 3.12 µg/mL (≈ 6.57 µM)
[3]
  MIC: 3.12 µg/mL (≈ 6.57 µM)
[9]
  MIC: 100 µg/mL (≈ 211 µM)
[4]
  MIC: 12.5 µg/mL (≈ 26.3 µM)
[5]
  MIC: 3.12 µg/mL (≈ 6.57 µM)
[6]
  responders at 50 mg/kg: 90%
[7]
  MIC: 25 µg/mL (≈ 52.7 µM)
[8]
  MIC: 3.12 µg/mL (≈ 6.57 µM)
[10]
  MIC: 6.25 µg/mL (≈ 13.2 µM)

## CC1(C)S[C@@H]2[C@H](NC(=O)[C@H](NC(=O)C3CCCN(C(=N)N)C3)c3ccccc3)C(=O)N2[C@H]1C(=O)O (some centres unmarked) [C(NH)NH2, R=H]
[1]
  MIC: 12.5 µg/mL (≈ 24.9 µM)
[2]
  MIC: 3.12 µg/mL (≈ 6.21 µM)
[3]
  MIC: 1.56 µg/mL (≈ 3.1 µM)
[4]
  MIC: 6.25 µg/mL (≈ 12.4 µM)
[5]
  MIC: 6.25 µg/mL (≈ 12.4 µM)
[6]; [14]
  responders at 50 mg/kg: 80%
[7]
  MIC: 6.25 µg/mL (≈ 12.4 µM)
[8]
  MIC: 6.25 µg/mL (≈ 12.4 µM)
